The record followed here is paper PMC6121230 (International Journal of Molecular Sciences, 2018).

SMILES strings stand for the structures.

Common to all, as to details: 50 mM Tris pH 8.0; lipid monolayer, interfacial binding (not a 1:1 site)
Test [1] has as its system (His)6-VpPLD-WT.
The test system of test [2] is VpPLD-(His)6-WT.
In test [3] the test system is (His)6-VpPLD-Δ469-487.
Test [4] relates to (His)6-VpPLD-Δ451-487.
Test [5] deals with (His)6-VpPLD-WT. The source holds these as a separate data set.
In test [6] the test system is VpPLD-(His)6-Δ1-25.
For test [7], the system named is VpPLD-(His)6-Δ1-34.
The test system of test [8] is (His)6-VpPLD-Δ434-487.

On to `CCCCCCCCCCCCCC(=O)OC[C@H](COP(=O)(O)OCC(O)CO)OC(=O)CCCCCCCCCCCCC` (mixture of isomers) [DMPG, 1,2-Dimyristoyl-sn-glycero-3-phospho-rac-glyceol], for which the synergy factor a in test [1] is 0.29 ± 0.03. In addition, the MIP in test [2] was determined as 26.8 ± 0.9 mN m^-1.

As to `CCCCCCCCCCCCCC(=O)OC[C@H](COP(=O)([O-])OCC[N+](C)(C)C)OC(=O)CCCCCCCCCCCCC` [DMPC, 1,2-Dimyristoyl-sn-glycero-3-phosphocholine], the MIP is 29.8 ± 1.8 mN m^-1 in test [3], 37.4 ± 1.3 mN m^-1 in test [2], 34.9 ± 3.7 mN m^-1 in test [4] and 29.6 ± 2.6 mN m^-1 in test [5].

For the compound `CCCCCCCCCCCCCC(=O)OC[C@H](COP(=O)(O)OCCN)OC(=O)CCCCCCCCCCCCC` [DMPE, 1,2-Dimyristoyl-sn-glycero-3-phosphoethanolamine], the MIP in test [6] was determined as 39.4 ± 6.2 mN m^-1; in test [7], 47.8 ± 8.7 mN m^-1; in test [3] it was 26.2 ± 2.7 mN m^-1; in test [8], 45.1 ± 2.8 mN m^-1; in test [2], 29.8 ± 2.8 mN m^-1; in test [5], 32.8 ± 3.7 mN m^-1.

For `CCCCCCCCCCCCCC(=O)OC[C@H](COP(=O)(O)OC[C@H](N)C(=O)O)OC(=O)CCCCCCCCCCCCC` [DMPS, 1,2-Dimyristoyl-sn-glycero-3-phospho-L-serine], the MIP is listed as 30.4 ± 3.2 mN m^-1 in test [6]; 36.5 ± 2.7 mN m^-1 in test [7]; 40.4 ± 4.6 mN m^-1 in test [8]; 38.5 ± 2.7 mN m^-1 in test [2]; 36.4 ± 2.1 mN m^-1 in test [4]; 34.8 ± 0.6 mN m^-1 in test [5].
